Reference: the METLIN SMRT retention time set (Domingo-Almenara et al. 2019)

Experiment: gradient 5% acetonitrile 3 min, to 50% in 2 min, to 85% in 15 min, held 3 min, 100 µL/min
Settings: column: Zorbax Extend-C18 2.1 x 50 mm; eluents: water / acetonitrile, 0.1% formic acid
In short: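 Pure standards were run in mixtures of ~100 molecules by HPLC coupled to a quadrupole time-of-flight mass spectrometer. The column was a Zorbax Extend-C18 (2.1 × 50 mm, 1.8 μm) at 100 μL/min, with water and acetonitrile each containing 0.1% formic acid, in positive and negative ionization mode. Dead and dwell volumes were 40 μL and 900 μL. Retention time was taken from computationally picked adduct peaks, each manually inspected, with data collected over 3 months.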

Row | RP-LC retention time [s] | Compound
1 | 545 | CC(C)C(=O)NCCc1nc2cccnc2n1C
2 | 622 | COc1cccc2sc(N(CCCN(C)C)C(=O)c3cccc(C(F)(F)F)c3)nc12
3 | 870 | Cc1oc2ccn(Cc3ccc(F)cc3)c(=O)c2c1C(=O)NCC1CCCO1 (centres undefined)
4 | 606 | COc1ccc(OC)c(-c2[nH]ncc2CN2CC(F)(F)C[C@H]2CN2CCOCC2)c1
5 | 931 | CCOCCOC(=O)C1=C(C)NC2=C(C(=O)C(C(=O)OC)C(C)C2)C1c1cccc(Cl)c1 (centres undefined)
6 | 1040 | COc1ccc(N2CC(c3nc(-c4ccc(C(F)(F)F)cc4)no3)CC2=O)cc1 (centres undefined)
7 | 760 | COc1ccc(S(=O)(=O)NCCc2cn(C)c3ncccc23)cc1Cl
8 | 986 | Cc1cc(F)ccc1NS(=O)(=O)c1cn(CC(C)C)c2ncccc12
9 | 720 | CN(C)C(=O)c1ccc2c(c1)CCN2C(=O)C1CCCC1
10 | 812 | CC1CN(C(=O)CSc2cn(CC(=O)N3CCCCC3)c3ccccc23)CC(C)O1 (centres undefined)
11 | 724 | CCOc1nccnc1N1CCC(N(C)C(=O)c2ccsc2)C1 (centres undefined)
12 | 750 | CCc1ccc(Nc2nc(C(=O)NCCCOC)nc3ccccc23)cc1
13 | 943 | CCN(CC)c1nc(-c2ccc(C(C)(C)C)cc2)nc2ccccc12
14 | 551 | CCCc1ccc(OCC(O)CN2CCN(C)CC2)cc1 (centres undefined)
15 | 698 | Clc1ccc(Cl)c(-c2ccc(CNC3CC3)o2)c1
16 | 886 | COc1cc(OC)c(NC(=O)N2CCC3(CC2)N=C(c2cccc(F)c2)C(=O)N3)cc1Cl
17 | 574 | COc1ccc(OC)c(C(O)CN2CCC(c3nc(C)no3)CC2)c1 (centres undefined)
18 | 977 | Cc1ccc(S(=O)(=O)N2CCC(C(=O)NCc3csc(-c4cccs4)n3)CC2)c(C)c1
19 | 606 | O=C(O)c1cnc(NCc2cccnc2)nc1-c1ccc(Cl)cc1
20 | 692 | COc1ccccc1NC(=O)Nc1c(-c2ccc(F)cc2)nc2ccccn12
21 | 686 | CCc1cccc(C)c1NC(=O)Cn1cnc2nc(N3CCC(C(=O)NC4CC4)CC3)sc2c1=O
22 | 1100 | COc1ccc(OC)c(NC(=O)COc2cc(C(F)(F)F)c3c(C)nn(C)c3n2)c1

Row | RP-LC retention time [s] | Compound
23 | 624 | CCOC(=O)c1c(C)[nH]c(C(=O)N2CCC(CC(=O)N3CCN(C4CCCCC4)CC3)CC2)c1C
24 | 966 | CC(C)c1ccc(N2C(=O)CN(S(C)(=O)=O)CC2(C)C(=O)NCc2ccc(Cl)cc2)cc1 (centres undefined)
25 | 923 | O=c1n(Cc2ccc(F)cc2)nc2ccc(S(=O)(=O)N3CCCCC3)cn12
26 | 1030 | CCc1nc(-c2csc(S(=O)(=O)N3CCCC(C(=O)Nc4ccc(F)cc4)C3)c2)no1 (centres undefined)
27 | 959 | COc1ccc(-c2nnc(COc3cccc(NC(=O)C4CCCC4)c3)o2)cc1
28 | 668 | O=C(Cn1c(-c2nnco2)cc2ccccc21)NCC1CCCO1 (centres undefined)
29 | 573 | CN(C)c1ccc2c(c1)CN(C(=O)c1ccoc1)CCO2
30 | 670 | CN1C(=O)c2[nH]nc(-c3ccccc3)c2C1c1ccc(O)cc1 (centres undefined)
31 | 773 | CC1(C(=O)NCc2ccccc2)CN(S(C)(=O)=O)CC(=O)N1c1ccccc1F (centres undefined)
32 | 910 | Cc1ccc(NC(=O)C2CCN(S(=O)(=O)c3ccc4c(c3)NC(=O)C(C)O4)CC2)cc1F (centres undefined)
33 | 922 | COc1cccc(-c2ccnc3nc(Cc4ccc(F)cc4)nn23)c1
34 | 859 | Cc1ccc(CNC(=O)CCCn2c(=O)c3sccc3n(CC(=O)N3CCCCC3C)c2=O)cc1 (centres undefined)
35 | 738 | Cc1ccc2c(c1)N(CC(=O)NC1CC1)C(=O)C(C)O2 (centres undefined)
36 | 568 | O=C(CC1CCCCN1S(=O)(=O)c1ccc(Cl)cc1)NCc1cccnc1 (centres undefined)
37 | 820 | Clc1cccc(-n2ncc3c(SCc4cccnc4)ncnc32)c1
38 | 738 | COc1ccc(-c2cc(N3CCN(C(=O)COc4ccc(Cl)cc4)CC3)ncn2)cc1
39 | 822 | COCCCNC(=O)c1ccc2c(c1)CCCN2S(=O)(=O)c1ccccc1
40 | 880 | O=C(NCc1ccccc1Br)C1CCN(c2nnc(-c3ccccc3)o2)CC1
41 | 942 | N#Cc1cccc(NC(=O)c2cc(C3CC3)n3nccc3n2)c1
42 | 668 | Cc1ccc(CNC(=O)C2(C)CN(S(C)(=O)=O)CC(=O)N2Cc2ccc(N(C)C)cc2)cc1 (centres undefined)
43 | 995 | Cc1ccc(NC(=O)Nc2ccc3c(c2)CCN3S(=O)(=O)c2ccccc2)cc1
44 | 1050 | Cc1ccc(N2CN(CC(=O)NCCC3=CCCCC3)S(=O)(=O)c3cccnc32)cc1

Row | RP-LC retention time [s] | Compound
45 | 716 | CCCn1c(C2CCN(C(=O)c3sccc3C)C2)nc2cccnc21 (centres undefined)
46 | 733 | CC1=C(c2ccc(Cl)cc2)S(=O)(=O)N=C1N1CCC(NC(=O)C2CCOC2)CC1 (centres undefined)
47 | 794 | Cc1ccccc1NC(=O)N1CCC(N2CCN(Cc3ccccc3)C2=O)CC1
48 | 847 | CCC(C)NC(=O)c1cccc(C)c1 (centres undefined)
49 | 1080 | CCn1cc(-c2ccccc2)cc1C(=O)NC1CCCC1
50 | 848 | Cc1oc(C2CCN(C(=O)Cc3c(F)cccc3Cl)CC2)nc1C(=O)N1CCCC1
51 | 909 | O=C(NCc1ccc(F)c(Cl)c1)c1ccc(NC(=O)C2CCC2)cc1N1CCOCC1
52 | 797 | COc1cccc(Oc2ncc(-c3cccc(C(=O)NC4CC4)c3)cn2)c1
53 | 567 | Cc1ccsc1CN1CCC(c2nc(-c3cnccn3)n[nH]2)CC1
54 | 576 | COc1cc(CC(=O)N2CCN(c3cc(C)n4c(C)nnc4n3)CC2)cc(OC)c1
55 | 782 | Cc1cc(C)cc(NC(=O)CN2CCN(Cc3ccccc3)C(=O)C2=O)c1
56 | 971 | Cn1c(=O)c2c(-c3cccc(Br)c3)n(Cc3ccco3)cc2n(C)c1=O
57 | 595 | O=C(NCc1cccnc1)C1CN(S(=O)(=O)c2cccnc2)CC12CCCCC2 (centres undefined)
58 | 828 | CC(C)c1cc(C2CCCN2C(=O)c2ccsc2)no1 (centres undefined)
59 | 822 | CCOc1cc(=O)n2c(c1C(=O)Nc1cc(F)ccc1Cl)CCCC2
60 | 628 | COc1ccc(C(=O)N2C[C@@H]3C[C@H](NC(=O)c4cccs4)[C@H]2C3)c(C)c1
61 | 798 | COc1cccc(-c2noc(Cn3ccn(-c4ccccc4C)c(=O)c3=O)n2)c1OC
62 | 753 | CCOC(=O)c1ccc(NC(=O)Cn2cnc3nc(N4CCCC4)ncc3c2=O)cc1
63 | 921 | CCc1ccc(N2CC(c3noc(-c4ccco4)n3)CC2=O)cc1 (centres undefined)
64 | 1210 | CCc1ccc(-n2ncc3c(=O)n(Cc4nc(-c5ccc(SC)cc5)no4)cnc32)cc1
65 | 604 | Cn1c(=O)c(C(=O)N2CCN(c3ccccn3)CC2)nn(-c2ccccc2)c1=O
66 | 979 | CCS(=O)(=O)N1CC(=O)N(c2ccc(C)c(C)c2)C(C)(C(=O)NC2CCCCCC2)C1 (centres undefined)

Row | RP-LC retention time [s] | Compound
67 | 690 | CCCNC(=O)C1CCN(c2ccc(SCC(=O)Nc3cc(Cl)ccc3C)nn2)CC1
68 | 763 | CCCn1c(=O)sc2cc(S(=O)(=O)N3CCC(C(=O)NCC4CCCO4)CC3)ccc21 (centres undefined)
69 | 754 | CC(CNC(=O)C1CCN(C(=O)c2ncn3c2COC(c2ccc(F)cc2)C3)CC1)c1ccccc1 (centres undefined)
70 | 612 | CCC(CC)NC(=O)C1CCN(c2cn[nH]c(=O)c2)C1 (centres undefined)
71 | 881 | O=c1c(=O)n(-c2cccc(Cl)c2)ccn1Cc1nc(-c2ccc(F)cc2)no1
72 | 827 | N#Cc1cccc(N2C=C(C(=O)N3CCCCC3)S(=O)(=O)c3ccc(F)cc32)c1
73 | 840 | CCOC(=O)C1=C(c2ccc(OC)cc2)NC(=O)NC1c1ccc(OC)cc1 (centres undefined)
74 | 1010 | O=C(Nc1nnc(SCc2c(F)cccc2Cl)s1)c1cc(C2CC2)on1
75 | 832 | CCS(=O)(=O)N1CC(=O)N(c2ccc(F)cc2C)C(C)(C(=O)NCc2ccc(F)cc2)C1 (centres undefined)
76 | 708 | COc1ccc(CC(=O)Nc2cc(-c3cccnc3)no2)cc1
77 | 933 | COc1cccc(CNS(=O)(=O)c2ccc3c(c2)C(=O)N(C)c2ncccc2O3)c1
78 | 848 | O=C(Cn1ccn2nc(-c3ccccc3)c(CO)c2c1=O)N1CCc2ccccc21
79 | 1050 | O=C(NCc1cccc(Br)c1)C1CCCN(c2ccc(=O)n(-c3ccc(F)cc3)n2)C1 (centres undefined)
80 | 556 | COCC1(O)CCOC2(CCN(Cc3ccc(C)cc3)CC2)C1 (centres undefined)
81 | 720 | Cc1cc(N2CCN(S(=O)(=O)c3ccc(F)c(F)c3)CC2)nc(N2CCCC2)n1
82 | 682 | CCc1nc(NCc2ccc(OC)c(OC)c2)ncc1C(=O)O
83 | 1110 | Cc1ccc(-c2noc(Cn3c(=O)n(Cc4ccco4)c(=O)c4ccccc43)n2)cc1
84 | 843 | O=C(NCCc1cccs1)c1cc2n(n1)CCCN(Cc1cccc(F)c1)C2=O
85 | 1010 | COc1ccc(-c2nn(-c3ccccc3)cc2C#N)cc1[N+](=O)[O-]
86 | 487 | CC1(C)CCC=[N+]1[O-]
87 | 676 | Nc1cc(C2CCN(C(=O)Cc3ccccc3F)CC2)no1

Row | Compound | RP-LC retention time [s]
88 | O=C(CN1CCCC1=O)NCc1ccccc1C(F)(F)F | 680
89 | CCCS(=O)(=O)N1[C@H]2CC[C@@H]1c1cnc(-c3ccc(F)cc3)nc1C2 | 1010
